“And” between values parts separate entries of the source, which are not always exact repeats. Equal values may be shown once. “Also recorded” adds a separate entry of the source. Read-outs that look alike come from different tables or passages of the source.
Tests used:
EBOV [1] = settings: mouse, in vivo, cited from earlier work
[2] = human, in vivo, po, cited from earlier work
EBOV [3] = system: EBOV; design: species or system Ebola virus
EBOV [4] = system: EBOV; design: species or system mice; settings: mouse, in vivo
EBOV/Mak [5] = settings: cited from earlier work; for IC50: read-out: IC50 (Huh7)
[6] = C57BL/6, mouse, in vivo, po; for Cmax obtained relative to prediction, fold higher: female
[7] = mouse, in vivo
EBOV/Mak-C05 = settings: rhesus monkey, in vivo; cited from earlier work
in vivo [8] = settings: female, C57BL/6, mouse, po
in vivo [9] = settings: mouse, po, 10 mg/kg
[10] = mouse, in vivo; cited from earlier work
EBOV [11] = experiment: microbe, parasite or virus in culture; type: cell-based, Ebola virus; settings: Zaire ebolavirus, read-out: IC50 (average) (μM)
VSV-EBOV-GPΔ-Luc = type: cell-based
EBOV [12] = settings: read-out: IC50 (HepG2); cited from earlier work
[13] = rat, in vivo; cited from earlier work
EBOV/Mak [14] = type: cell-based, Ebola virus
MARV = settings: mouse, in vivo, ip, 12 mg/kg; cited from earlier work

O=C1CCc2ccc(OCCCCN3CCN(c4cccc(Cl)c4Cl)CC3)cc2N1 [Aripiprazole]
Survival (%) (EBOV [1]; ip, 20 mg/kg): 10 ^1%
somnolence in treated mice (EBOV [1]; ip, 20 mg/kg): extremely somnolent
Cmax ([2]; 30 mg): 1010 nM

CN[C@H]1CC[C@@H](c2ccc(Cl)c(Cl)c2)c2ccccc21 [Sertraline]
mi (hill coefficient of drug i applied in combination) (EBOV [3]): 2.736 and 1.996
predicted survival (EBOV [4]): ~ 35%
Hill coefficient (EBOV/Mak [5]): 1.628
Cmax [6]: ~1200 nM
Cmax obtained relative to prediction, fold higher [6]: ~ 1.2 fold
tolerability [7]: well tolerated
protection (EBOV/Mak-C05): not effective; also recorded: did not protect macaques
MRT (in vivo [8]; 30 mg/kg): 11 h
half-life (in vivo [8]; 30 mg/kg): 1 h
MRT (in vivo [8]; 60 mg/kg): 5 h
half-life (in vivo [8]; 60 mg/kg): 1 h
Cmax (in vivo [9]): 430 nM
Survival (%) (EBOV [1]; ip, 10 mg/kg): 70%
Oral LD50 [10]: 336 mg/kg
Cmax ([2]; 200 mg): 540 nM

CC[C@H]1OC(=O)[C@H](C)[C@@H](O[C@H]2C[C@@](C)(OC)[C@@H](O)[C@H](C)O2)[C@H](C)[C@@H](O[C@@H]2O[C@H](C)C[C@H](N(C)C)[C@H]2O)[C@](C)(O)C[C@@H](C)CN(C)[C@H](C)[C@@H](O)[C@]1(C)O [Azithromycin]
IC50 (EBOV [11]): 10.8 µM
IC50 (EBOV/Mak [5]): 10.8 µM
Survival (%) (EBOV [1]; ip, 100 mg/kg): 10, 30, 60 ^2%
Cmax ([2]; 500 mg): 640 nM

Cc1cccc(/C=N/Nc2cc(N3CCOCC3)nc(OCCc3ccccn3)n2)c1 [Apilimod]
IC50 (EBOV [11]): 0.17 µM
IC50 (EBOV/Mak [5]): 0.17 µM
Cmax ([2]; 70 mg): 260 nM

CN(C)CCOc1ccc(/C(=C(/CCCl)c2ccccc2)c2ccccc2)cc1 [Toremifene]
IC50 (EBOV [11]): 1.8 µM
inhibitory activity over time (stability in V8) (VSV-EBOV-GPΔ-Luc): began to lose activity after ~1 week
mi (hill coefficient of drug i applied in combination) (EBOV [3]): 1.628
approximated protection of infected mice (EBOV [4]): ~ 50%
estimated survival (EBOV [4]): ~ 50%
predicted survival (EBOV [4]): ~ 7%
Hill coefficient (EBOV/Mak [5]): 3.057
IC50 (EBOV/Mak [5]): 3.64 µM
Cmax [6]: ~4400 nM
tolerability [7]: well tolerated
IC50 (EBOV [12]): 0.03 µM
Cmax (in vivo [8]; 100 mg/kg): 498 ng/mL
MRT (in vivo [8]; 100 mg/kg): 6 h
half-life (in vivo [8]; 100 mg/kg): 0.5 h
Cmax (in vivo [8]; 200 mg/kg): 1300 ng/mL
MRT (in vivo [8]; 200 mg/kg): 16 h
half-life (in vivo [8]; 200 mg/kg): 0.2 h
Cmax (in vivo [9]): 160 nM
Survival (%) (EBOV [1]; ip, 60 mg/kg): 50%
Oral LD50 [13]: 3000 mg/kg
Cmax ([2]; 60 mg): 1970 nM

CC(C)COCC(CN(Cc1ccccc1)c1ccccc1)N1CCCC1 (stereo not drawn) [Bepridil]
possible loss of potency (EBOV/Mak [14]): < 2 fold
IC50 (EBOV [11]): ~4 µM
inhibitory activity over time (stability in V8) (VSV-EBOV-GPΔ-Luc): maintained inhibitory activity over 15 days
mi (hill coefficient of drug i applied in combination) (EBOV [3]): 4.043
Hill coefficient (EBOV/Mak [5]): 4.859
IC50 (EBOV/Mak [5]): 5.86 µM
Cmax [6]: ~3000 nM
Cmax obtained relative to prediction, fold higher [6]: ~ 1.8 fold
tolerability [7]: well tolerated
IC50 (EBOV [12]): 3.21 µM
Survival (%) (MARV): 90 ^4%
mice protected (MARV): 80%
MRT (in vivo [8]; 150 mg/kg): 6 h
half-life (in vivo [8]; 150 mg/kg): 0.5 h
MRT (in vivo [8]; 500 mg/kg): 9 h
half-life (in vivo [8]; 500 mg/kg): 0.5 h
Survival (%) (EBOV [1]; ip, 12 mg/kg): 100% and 100 ^3%
survival (EBOV [1]; ip, 12 mg/kg): 90-100%
Oral LD50 [10]: 2069 mg/kg
Cmax ([2]; 400 mg): 2430 nM

CC(=O)c1ccc2c(c1)N(CCCN1CCC(CCO)CC1)c1ccccc1S2 [Piperacetazine]
IC50 (EBOV [11]): 5.44 µM
IC50 (EBOV/Mak [5]): 7.58 µM
IC50 (EBOV [12]): 3.3 µM

CCN(CC)CCOc1ccc(C(=C(Cl)c2ccccc2)c2ccccc2)cc1 [Clomiphene]
protection (EBOV [1]; ip, 12 mg/kg): 60% and 40%
protection (EBOV [1]; po, 21 mg/kg): no mice were protected
Cmax ([2]; 50 mg): 50 nM
